# Measurements from ChEMBL document CHEMBL1201862, “PubChem BioAssay data set” (2004).
# Calls of active or inactive are those of the source.
# Assays:
# [1] = target: Estrogen receptor beta (Homo sapiens, UniProt Q92731);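 also: recombinant ER-beta bound to coactivator SRC1 peptide in presence of estradiol agonist; inhibitors block coactivator peptide binding and lower the FRET signal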
# [2] = Luminescence-based dose response cell-based high throughput screening assay for cytotoxic compounds using the IEC-6 intestinal epithelial cell line. [Related pubchem assays: 1858 (Summary AID.), 1825 (Counterscreen.), 1907 (Confirmation screen.)]; format: functional
# [3] = HEK-293T viability loss after treatment – luminescence, T-cell screen hits, cytotoxicity control for TCR NF-kB inhibitor project, dose response (AID 489026); format: functional, cell-based;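 also: cells exposed to compound about 14 hours before the viability readout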
# [4] = target: Epstein-Barr nuclear antigen 1 (Epstein-Barr virus (strain B95-8) (HHV-4) (Human herpesvirus 4), UniProt P03211); assay: inhibition of EBV nuclear antigen 1 DNA binding – biochemical, fluorescence polarization, 1536-well, dose response (AID 2381); parameters: species or system human gammaherpesvirus 4;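 also: fluorescence polarization of a Cy5 DNA probe bound by EBNA-1 protein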
# [5] = target: Lytic switch protein BZLF1 (Epstein-Barr virus (strain B95-8) (HHV-4) (Human herpesvirus 4), UniProt P03206); assay: inhibition of BZLF1 ZTA DNA binding – biochemical, fluorescence polarization, Epstein-Barr virus, 1536-well, counter-screen for EBNA-1 inhibitor project, dose response (AID 2377); parameters: species or system human gammaherpesvirus 4;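 also: fluorescence polarization of Cy5-labelled ZRE DNA probe bound by purified Zta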
# [6] = target: Sphingosine 1-phosphate receptor 2 (Homo sapiens, UniProt O95136); assay: Dose Response Cell Based Assay for Agonists of the S1P2 Receptor of Purchased Analogues. [Related pubchem assays: 729, 843, 854, 736 ]; format: functional
# [7] = target: Prothrombin (Homo sapiens, UniProt P00734); assay: Thrombin 1536 HTS Dose Response Confirmation. [Related pubchem assays: 1046 (Thrombin 1536 HTS; hits were confirmed in this assay)]; format: functional
# [8] = target: Ephrin type-A receptor 4 (Mus musculus, UniProt Q03137); assay: EphA4 ligand-binding antagonists – biochemical, colorimetric, mouse EphA4, primary screen (AID 689); format: functional
# [9] = NIH-3T3 fibroblast cytotoxicity, dose response, cytotoxicity control, cell-based, fluorescence, Alamar Blue, secondary assay (AID 2327); format: functional;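 also: NIH-3T3 mouse fibroblasts cultured with fluconazole at 8 µg/mL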
# [10] = fluconazole-exposed Candida albicans growth modulators – fluorescence, retest, confirmation (AID 2467); format: functional, cell-based
# [11] = target: fMet-Leu-Phe receptor (Homo sapiens, UniProt P21462); assay: formyl peptide receptor binders – dose response (AID 519); format: functional
# [12] = target: Cytochrome P450 2C9 (Homo sapiens, UniProt P11712)
# [13] = target: Voltage-gated inwardly rectifying potassium channel KCNH2 (Homo sapiens, UniProt Q12809); assay: concentration-dependent hERG rescue from blockers – cell-based, thallium flux, dose response (AID 2121); format: ADME
# [14] = Shn3 3'UTR reporter signal decrease – cell-based, Clone20 osteoblasts, firefly luciferase, cherry-pick, set 2, Schnurri-3 inhibitor project, dose response (AID 720490); format: functional;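 also: actives lower the luminescence signal as inhibitors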
# [15] = reduction of Shn3 3'UTR-driven luciferase in osteoblasts – cell-based, Clone20 osteoblasts, firefly luciferase, cherry-picked, dose response (AID 624132); format: functional;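 also: firefly luciferase luminescence from reporter carrying the Shn3 3'UTR in osteoblasts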
# [16] = non-specific 3'UTR reporter inhibition in Clone20-Shn3RL – cell-based, Renilla luciferase, cherry-picked, counter-screen for Shn3 inhibitor project, dose response (AID 624133); format: functional
# [17] = loss of viability in HepG2 cells – cell-based, CellTiter-Glo, cherry-picked, cytotoxicity control for Shn3 inhibitor project, dose response (AID 624134); format: functional
# [18] = target: Cytochrome P450 2C19 (Homo sapiens, UniProt P33261); assay: Cytochrome panel assay with activity outcomes. Panel member name: p450-cyp2c19 Compounds with AC50 equal or less than 10 uM are considered active; format: functional; conditions: read-out: AC50
# [19] = target: Caspase-6 (Homo sapiens, UniProt P55212); assay: inhibition of CASP6 peptide cleavage – biochemical, VEID-R110 fluorescence, cherry-pick, dose response (AID 720632)
# [20] = cells
# [21] = target: Major prion protein (Homo sapiens, UniProt P04156); format: functional, cell-based
# [22] = Luminescence Cell-Based Dose Response to Identify Activators of 5'UTR Stem-Loop Driven Prion Protein mRNA Translation in H4-C Neuroglioblastoma Cells. [Related pubchem assays: 1829 (Project Summary), 1814 (Primary HTS)]; format: functional
# [23] = Luminescence Cell-Based Dose Confirmation to Identify Activators of 5'UTR Stem-Loop Driven Alpha-Synuclein mRNA Translation in H4 Neuroglioblastoma Cells. [Related pubchem assays: 1829 (Project Summary), 1814 (Primary HTS)]; format: functional
# [24] = Luminescence Cell-Based Dose Response HTS to Identify Activators of Luciferase Translation or Activity in H4 […] Cells. [Related pubchem assays: 1829 (Project Summary), 1814 (Primary HTS)]; format: functional
# [25] = test system: H4; assay: Luminescence Cell-Based Dose Response HTS to Identify Activators of 5'UTR Stem-Loop Driven Prion Protein mRNA Translation in H4 Neuroglioblastoma Cells. [Related pubchem assays: 1829 (Project Summary), 1814 (Primary HTS)]; format: functional; conditions: Homo sapiens
# [26] = Luminescence Cell-Based Dose Response to Identify Activators of Luciferase Translation or Activity in H4-C Neuroglioblastoma Cells. [Related pubchem assays: 1829 (Project Summary), 1814 (Primary HTS)]; format: functional
# [27] = target: T1, Voltage-gated N-type calcium channel alpha-1B subunit/Amyloid beta A4 precursor protein-binding family A member 1 (Homo sapiens, UniProt Q00975+Q02410); format: protein assay
# [28] = target: T1, Voltage-gated N-type calcium channel alpha-1B subunit/Amyloid beta A4 precursor protein-binding family A member 1; format: protein assay; remark: listed apart in the source
# [29] = cells; format: functional, cell-based
# [30] = cells; format: functional, cell-based; remark: listed apart in the source
# [31] = NIH3T3 cell viability loss – ATP luminescence, mouse fibroblasts, counter-screen, dose response (AID 2010); format: functional, cell-based;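 also: cells exposed to compound for about 90 hours before reading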
# [32] = target: Nonstructural protein 1 (Influenza A virus, UniProt Q194T2); format: functional, Influenza A virus (A/California/07/2009(H1N1))
# [33] = test system: INS1; assay: INS-1E survival protection against cytokine death – cell-based, luminescence, retest, dose response (AID 449756); format: functional; conditions: Rattus norvegicus;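 also: cell death triggered by IL-1 beta plus TNF-alpha plus IFN-gamma mixture; protective hits raise ATP signal compared with cytokine alone wells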
# [34] = Trypanosoma cruzi growth suppression in host cells – NIH3T3 host cells, beta-gal luminescence, confirmation (AID 2044); format: functional, cell-based;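 also: intracellular parasites grown in NIH/3T3 mouse fibroblasts as host cells; luminescent beta-galactosidase reporter signal from transgenic T. cruzi replicating inside host cells; inhibitors lower the luminescence signal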
# [35] = MITF: Counter assay: A375 proliferation Measured in Cell-Based System Using Plate Reader - 2084-03_Inhibitor_Dose_DryPowder_Activity_Set8.; format: functional; conditions: A-375
# [36] = MITF Orthogonal Assay: SK-MEL-5 CTG Assay Measured in Cell-Based System Using Plate Reader - 2084-02_Inhibitor_Dose_DryPowder_Activity_Set7.; format: functional
# [37] = inhibitors of TRPM1-promoter reporter in SK-MEL-5 – cell-based, luciferase, dry powder, set 8, MITF inhibitor project, dose response (AID 624430); format: functional
# [38] = general mammalian cell viability loss – activator set, cherry-pick, cytotoxicity control for miR-122 modulator project, dose response (AID 720690); format: functional, cell-based;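 also: HEK293T human cells scored for general mammalian cytotoxicity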
# [39] = general mammalian cell viability loss – inhibitor set, cherry-pick, set 2, cytotoxicity control for miR-122 modulator project, dose response (AID 720697); format: functional, cell-based
# [40] = test system: Streptococcus; assay: GAS UMAA2166 growth inhibition – luminescence, BacTiterGlo, counter-screen for streptokinase expression inhibitor project, dose response (AID 1915); format: functional, organism-based;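 also: potency for reduction of bacterial viability or growth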
# [41] = target: T2, Streptokinase A (Streptococcus pyogenes serotype M1, UniProt P10520); assay: viability-normalized secreted streptokinase activity reduction – plasminogen activation absorbance, OD405, dose response (AID 1914); format: functional, Streptococcus pyogenes M1 GAS;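 also: secreted streptokinase activity via plasminogen activation per viability signal from cell pellet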
# T2 sequence (P10520 whole entry): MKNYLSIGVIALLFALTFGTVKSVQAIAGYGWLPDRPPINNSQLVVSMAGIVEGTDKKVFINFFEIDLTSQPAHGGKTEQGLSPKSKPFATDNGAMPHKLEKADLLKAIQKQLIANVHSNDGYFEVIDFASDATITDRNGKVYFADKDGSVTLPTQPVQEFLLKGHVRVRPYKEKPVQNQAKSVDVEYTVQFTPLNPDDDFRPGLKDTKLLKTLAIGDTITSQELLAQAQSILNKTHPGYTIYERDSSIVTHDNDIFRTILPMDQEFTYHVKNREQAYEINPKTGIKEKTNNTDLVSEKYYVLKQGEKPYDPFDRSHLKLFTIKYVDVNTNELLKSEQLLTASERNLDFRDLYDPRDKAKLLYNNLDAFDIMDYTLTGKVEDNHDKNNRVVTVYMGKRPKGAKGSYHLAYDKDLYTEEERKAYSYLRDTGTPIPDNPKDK
# [42] = test system: Streptococcus sp. 'group A'; assay: Streptococcus pyogenes SK(-)GAS viability under kanamycin – luminescence, BacTiterGlo, confirmation, counter-screen for streptokinase expression inhibitor project, dose response (AID 1900); format: functional, organism-based
# [43] = IC50 of Artemis nuclease activity blockers – biochemical, fluorescence intensity, dose response (AID 720701); format: functional;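 also: Artemis endonuclease enzyme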
smiles,measurement,setting,value
O=S(=O)(c1cccc(-c2nc3ccccc3s2)c1)N1CCOCC1,IC50,[1],> 50 µM (not active)
CC(=O)O[C@H]1C(=O)[C@@]2(C)C([C@H](OC(=O)c3ccccc3)[C@]3(O)C[C@H](OC(=O)[C@H](O)[C@@H](NC(=O)Cc4ccccc4)c4ccccc4)C(C)=C1C3(C)C)[C@]1(OC(C)=O)CO[C@@H]1C[C@@H]2O (some centres undefined),IC50,[2],0.396 µM (active)
same,IC50,[3],> 80 µM (inactive)
CNS(=O)(=O)c1cccc(C(=O)OCC(=O)Nc2ccc(-c3nc4ccc(C)cc4s3)cc2)c1,IC50,[4],5.63 µM (active)
same,IC50,[5],> 111 µM (not active)
Cc1cc(C(=O)CN2C(=O)C(=O)N(Cc3ccco3)C2=O)c(C)n1Cc1ccccc1,EC50,[6],> 30 µM (not active)
Cc1c(Cl)cccc1NC(=O)Cc1ccc([N+](=O)[O-])cc1,IC50,[7],> 50 µM (not active)
Cc1ccc2cc(C=C(C#N)C#N)c(N3CCCCC3)nc2c1,IC50,[8],24.4 µM (active)
same,EC50,[9],46.4 µM (active)
same,EC50,[10],> 38 µM (not active)
COc1ccc(NC(=O)C2C(=O)NC3(C)CC2c2ccccc2O3)cc1 (centres undefined),Ki,[11],> 66.7 µM (inactive)
COc1ccccc1NC(=S)NC(=O)c1ccc(-c2ccc(Cl)cc2)o1,AC50,[12],inconclusive
same,EC50,[13],0.1 µM (active)
CC(C)CN(CCC(=O)O)CC(C)C,IC50,[1],> 50 µM (not active)
Cc1ccccc1OCCOC(=O)c1cc(S(=O)(=O)N2CCCCC2)ccc1N1CCOCC1,AC50,[14],4.28 µM (active)
same,AC50,[15],3.79 µM (active)
same,AC50,[16],> 70 µM (inactive)
same,AC50,[17],> 70 µM (inactive)
Cc1cc(C(=O)CN2C(=O)C(=O)N(Cc3ccccc3)C2=O)c(C)n1Cc1ccco1,EC50,[6],> 30 µM (not active)
COc1cc(C2C(C(=O)c3ccc(C)o3)=C(O)C(=O)N2CCc2ccccc2)ccc1O (centres undefined),Ki,[11],19.7 µM (inactive)
same,AC50,[18],11.2 µM (inconclusive)
COc1ccc(CCNC(=O)COC(=O)c2ccc([N+](=O)[O-])o2)cc1,AC50,[19],24.1 µM (active)
C=CCn1c(=S)[nH]c2cc(-c3ccccc3)sc2c1=O,EC50,[13],1.11 µM (active)
COc1cccc(N2CC(=O)C(c3nc4ccccc4s3)=C2N)c1,IC50,[20],> 138 µM (inactive)
same,IC50,[21],5.11 µM (active)
COCc1nc2oc3ccc(C)cc3c(=O)c2cc1C(=O)OC,EC50,[22],0.433 µM (active)
same,EC50,[23],0.282 µM (active)
same,EC50,[24],< 0.1 µM (inconclusive)
same,EC50,[25],> 120 µM (not active)
same,EC50,[26],0.402 µM (active)
O=C(Nc1nc2cc3c(cc2s1)OCCO3)c1ccc(N2C(=O)CCC2=O)cc1,IC50,[27],> 50 µM (inactive)
same,IC50,[4],15.6 µM (not active)
same,IC50,[28],23 µM (active)
same,IC50,[5],15.1 µM (not active)
COc1cccc(C(NC(C)=O)c2ccc3cccnc3c2O)c1 (centres undefined),EC50,[29],7.47 µM (active)
same,EC50,[30],> 350 µM (not active)
same,AC50,[15],1.39 µM (active)
same,EC50,[31],1.07 µM (active)
same,EC50,[9],3.88 µM (inconclusive)
same,IC50,[32],14.3 µM (active)
same,EC50,[10],1.38 µM (active)
same,AC50,[16],1.04 µM (active)
same,AC50,[33],0.886 µM (active)
same,IC50,[2],1.48 µM (active)
same,EC50,[34],1.07 µM (active)
same,AC50,[17],2.61 µM (active)
CSc1nc(-c2ccco2)nn1C(=O)c1ccco1,IC50,[7],0.22 µM (active)
COCOCCn1cc(CN2CCS(=O)(=O)N(Cc3ccc(-c4ccc(Cl)c(Cl)c4)cc3)C(C(C)C)C2=O)nn1 (centres undefined),AC50,[14],1.86 µM (active)
same,AC50,[15],1.35 µM (active)
same,AC50,[16],7.09 µM (active)
same,AC50,[17],> 70 µM (inactive)
O=C1C(Nc2ccc(F)cc2F)=C(N2CCCCC2)C(=O)c2ccccc21,AC50,[35],21.8 µM (active)
same,AC50,[36],3.64 µM (active)
same,AC50,[37],0.931 µM (active)
CN1C(=O)c2cc(NC(=O)C3CC3)ccc2OC[C@H]2O[C@@H](CC(=O)O)CC[C@@H]21,AC50,[19],23.1 µM (active)
C[C@H](CO)N1C[C@H](C)[C@H](CN(C)Cc2ccccc2)Oc2cc(/C=C/c3ccccc3)ccc2S1(=O)=O,AC50,[38],22.7 µM (active)
same,AC50,[39],34.5 µM (active)
CCN1CCN(C2=C(Nc3ccc(OC)cc3)C(=O)c3ccccc3C2=O)CC1,AC50,[35],> 70 µM (inactive)
same,AC50,[36],12.2 µM (active)
same,AC50,[37],6.87 µM (active)
COc1cc2c(C#N)c(N3CCN(c4ccccc4OC)CC3)nc(N)c2c(N)n1,EC50,[40],> 150 µM (not active)
same,EC50,[41],22.6 µM (active)
same,EC50,[42],4.63 µM (active)
same,IC50,[43],> 20 µM (inactive)
